pIC50: −log10 of the molar value.
What was measured:
Capan-1 (K-Ras G12V) = experiment: CellTiter-Glo cell viability assay, 5-day treatment; assay type: cell-based; settings: Homo sapiens, CAPAN-1, 120 h, 5-day treatment; read-out: Capan-1 Cell Viability assay data (K-Ras G12V, IC50)
Outline: (§1)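 Compounds were dispensed directly onto seeded cells and incubated for 5 days, then plates were equilibrated to room temperature for about 30 minutes before luminescence reading. Signals were expressed as percent of the mean DMSO control and fitted with a four-parameter logistic curve.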

NCI-H358 (K-Ras G12C) = experiment: as above; assay type: cell-based; settings: Homo sapiens, NCI-H358, 120 h, 5-day treatment; read-out: H358 Cell Viability assay data (K-Ras G12C, IC50)
Outline: as §1

KRAS G12C = KRAS G12C (Homo sapiens, UniProt P01116+P62937, G12C); experiment: Disruption of BRAF RBD interaction with Ras (FRET / MOA assay, with Cyclophilin A); assay type: biochemical; settings: read-out: KRAS G12C FRET data, IC50
Outline: (§2)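 Here, compound titrations (ten points, factor 3, from 30 μM final) act on nucleotide-bound K-Ras and Cyclophilin A, and ternary complex formation disrupts the RAF RBD interaction.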

KRAS G12D = KRAS G12D (Homo sapiens, UniProt P01116+P62937, G12D); experiment: as above; assay type: biochemical; settings: read-out: KRAS G12D FRET data, IC50
Outline: as §2

KRAS G12S = KRAS G12S (Homo sapiens, UniProt P01116+P62937, G12S); experiment: as above; assay type: biochemical; settings: read-out: KRAS G12S FRET data, IC50
Outline: as §2

KRAS G12V = KRAS G12V (Homo sapiens, UniProt P01116+P62937, G12V); experiment: as above; assay type: biochemical; settings: KRAS G12V; read-out: KRAS G12V FRET data IC50
Outline: as §2

KRAS G13C = KRAS G13C (Homo sapiens, UniProt P01116+P62937, G13C); experiment: as above; assay type: biochemical; settings: read-out: KRAS G13C FRET data, IC50
Outline: as §2

KRAS G13D = KRAS G13D (Homo sapiens, UniProt P01116+P62937, G13D); experiment: as above; assay type: biochemical; settings: KRAS G13D; read-out: KRAS G13D FRET data IC50
Outline: as §2

KRAS WT = KRAS WT (Homo sapiens, UniProt P01116+P62937); experiment: as above; assay type: biochemical; settings: KRAS WT; read-out: KRAS WT FRET data IC50
Outline: as §2

NRAS G12C = NRAS G12C (Homo sapiens, UniProt P01111+P62937, G12C); experiment: as above; assay type: biochemical; settings: NRAS G12C; read-out: NRAS G12C FRET data IC50
KRAS Q61H = KRAS Q61H (Homo sapiens, UniProt P01116+P62937, Q61H); experiment: as above; assay type: biochemical; settings: KRAS Q61H; read-out: KRAS Q61H FRET data IC50
Outline: (§3)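 IC50 reflects compound-driven Ras:Cyclophilin A ternary complex displacing BRAF RBD, read as lowered TR-FRET ratio relative to DMSO after Eu anti-His (10 nM) and APC anti-GST (50 nM) detection for 1.5 h. Prior incubation 3 h, 25° C, with 12.5 nM GMPPNP-loaded Ras, 50 nM BRAF RBD, 25 μM Cyclophilin A; top compound 30 μM.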

NRAS Q61K = NRAS Q61K (Homo sapiens, UniProt P01111+P62937, Q61K); experiment: as above; assay type: biochemical; settings: NRAS Q61K; read-out: NRAS Q61K FRET data IC50
Outline: as §3

NRAS Q61R = NRAS Q61R (Homo sapiens, UniProt P01111+P62937, Q61R); experiment: as above; assay type: biochemical; settings: NRAS Q61R; read-out: NRAS Q61R FRET data IC50
Outline: as §3

NRAS WT = NRAS WT (Homo sapiens, UniProt P01111+P62937); experiment: as above; assay type: biochemical; settings: NRAS WT; read-out: NRAS WT FRET data IC50
Outline: as §3

Sequence of KRAS G12S (P01116 1-169 isoform P01116-2 G12S limits assumed): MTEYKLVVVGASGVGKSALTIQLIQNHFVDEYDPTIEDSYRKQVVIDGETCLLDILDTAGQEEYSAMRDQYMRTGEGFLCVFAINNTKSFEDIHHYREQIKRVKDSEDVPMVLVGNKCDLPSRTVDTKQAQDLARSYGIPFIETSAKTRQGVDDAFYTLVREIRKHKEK
Sequence of KRAS G12S (P62937 whole entry): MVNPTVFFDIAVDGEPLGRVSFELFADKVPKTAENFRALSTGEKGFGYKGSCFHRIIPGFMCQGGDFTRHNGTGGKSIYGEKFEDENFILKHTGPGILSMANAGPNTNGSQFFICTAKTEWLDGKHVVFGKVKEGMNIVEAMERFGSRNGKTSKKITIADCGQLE
Sequence of KRAS G13D (P01116 1-169 isoform P01116-2 G13D limits assumed): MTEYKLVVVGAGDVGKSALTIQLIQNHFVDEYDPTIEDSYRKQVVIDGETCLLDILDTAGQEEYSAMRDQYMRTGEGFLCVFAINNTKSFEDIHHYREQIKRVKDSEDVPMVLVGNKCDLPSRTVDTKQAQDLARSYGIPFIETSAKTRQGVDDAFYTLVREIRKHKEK
Sequence of KRAS G13D (P62937 whole entry): as the sequence (P62937 whole entry) above
Sequence of KRAS G13C (P01116 1-169 isoform P01116-2 G13C): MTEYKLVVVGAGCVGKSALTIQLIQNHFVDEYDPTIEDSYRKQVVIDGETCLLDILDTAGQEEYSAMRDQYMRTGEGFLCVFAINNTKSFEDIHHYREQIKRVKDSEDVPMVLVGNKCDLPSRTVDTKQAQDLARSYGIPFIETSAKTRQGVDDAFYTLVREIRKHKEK
Sequence of KRAS G13C (P62937 whole entry): as the sequence (P62937 whole entry) above
Sequence of NRAS Q61R (P01111 whole entry Q61R): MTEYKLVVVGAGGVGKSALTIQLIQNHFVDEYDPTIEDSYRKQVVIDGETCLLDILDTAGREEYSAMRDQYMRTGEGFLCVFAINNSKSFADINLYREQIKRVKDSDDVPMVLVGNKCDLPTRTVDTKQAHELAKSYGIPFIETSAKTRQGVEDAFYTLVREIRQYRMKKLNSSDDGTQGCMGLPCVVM
Sequence of NRAS Q61R (P62937 whole entry): as the sequence (P62937 whole entry) above
Sequence of KRAS G12D (P01116 1-169 isoform P01116-2 G12D limits assumed): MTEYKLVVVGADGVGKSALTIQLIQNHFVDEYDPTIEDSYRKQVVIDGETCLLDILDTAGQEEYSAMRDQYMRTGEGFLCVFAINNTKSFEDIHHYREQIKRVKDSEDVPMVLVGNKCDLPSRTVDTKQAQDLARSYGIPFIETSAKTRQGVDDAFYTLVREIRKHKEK
Sequence of KRAS G12D (P62937 whole entry): as the sequence (P62937 whole entry) above
Sequence of KRAS Q61H (P01116 1-169 isoform P01116-2 Q61H limits assumed): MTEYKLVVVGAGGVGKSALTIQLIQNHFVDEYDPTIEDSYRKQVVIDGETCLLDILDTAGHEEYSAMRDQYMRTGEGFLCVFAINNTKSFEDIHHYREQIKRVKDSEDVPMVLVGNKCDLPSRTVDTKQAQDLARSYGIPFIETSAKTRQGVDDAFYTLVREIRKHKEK
Sequence of KRAS Q61H (P62937 whole entry): as the sequence (P62937 whole entry) above
Sequence of KRAS G12V (P01116 1-169 isoform P01116-2 G12V limits assumed): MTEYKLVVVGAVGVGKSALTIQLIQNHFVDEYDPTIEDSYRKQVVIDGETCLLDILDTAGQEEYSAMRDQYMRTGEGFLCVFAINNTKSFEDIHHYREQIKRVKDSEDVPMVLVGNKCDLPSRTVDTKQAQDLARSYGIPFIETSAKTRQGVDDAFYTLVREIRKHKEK
Sequence of KRAS G12V (P62937 whole entry): as the sequence (P62937 whole entry) above
Sequence of KRAS WT (P01116 1-169 isoform P01116-2 limits assumed): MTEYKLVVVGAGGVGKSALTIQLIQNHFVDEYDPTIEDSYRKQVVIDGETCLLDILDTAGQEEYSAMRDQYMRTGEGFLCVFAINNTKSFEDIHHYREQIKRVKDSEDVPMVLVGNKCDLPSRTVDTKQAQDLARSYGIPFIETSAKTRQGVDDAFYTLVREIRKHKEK
Sequence of KRAS WT (P62937 whole entry): as the sequence (P62937 whole entry) above
Sequence of NRAS G12C (P01111 whole entry G12C): as the sequence (P01111 whole entry Q61R) above, with G12C, R61Q counted along it
Sequence of NRAS G12C (P62937 whole entry): as the sequence (P62937 whole entry) above
Sequence of NRAS Q61K (P01111 whole entry Q61K): as the sequence (P01111 whole entry Q61R) above, with R61K counted along it
Sequence of NRAS Q61K (P62937 whole entry): as the sequence (P62937 whole entry) above
Sequence of NRAS WT (P01111 whole entry): as the sequence (P01111 whole entry Q61R) above, with R61Q counted along it
Sequence of NRAS WT (P62937 whole entry): as the sequence (P62937 whole entry) above
Sequence of KRAS G12C (P01116 1-169 isoform P01116-2 G12C): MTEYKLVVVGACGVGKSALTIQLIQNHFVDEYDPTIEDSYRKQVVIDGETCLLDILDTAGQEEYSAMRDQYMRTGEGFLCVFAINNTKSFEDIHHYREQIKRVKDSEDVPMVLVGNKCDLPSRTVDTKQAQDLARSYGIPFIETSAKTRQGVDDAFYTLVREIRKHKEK
Sequence of KRAS G12C (P62937 whole entry): as the sequence (P62937 whole entry) above

Compound | pIC50 (Capan-1 (K-Ras G12V)) | pIC50 (NCI-H358 (K-Ras G12C)) | pIC50 (KRAS G12C) | pIC50 (KRAS G12D) | pIC50 (KRAS G12S) | pIC50 (KRAS G12V) | pIC50 (KRAS G13C) | pIC50 (KRAS G13D) | pIC50 (KRAS WT) | pIC50 (NRAS G12C) | pIC50 (KRAS Q61H) | pIC50 (NRAS Q61K) | pIC50 (NRAS Q61R) | pIC50 (NRAS WT)
CCn1c(-c2cccnc2[C@H](C)OC)c2c3cc(ccc31)-c1csc(n1)C[C@H](NC(=O)[C@H](C(C)C)N(C)C(=O)N1CC3(CCN(C)CC3)C1)C(=O)N1CCC[C@H](N1)C(=O)OCC(C)(C)C2 [Example A513] | 7.00 to 8.00 | 7.00 to 8.00 | 6.00 to 7.00 | 5.00 to 6.00 | 6.00 to 7.00 | 6.00 to 7.00 | 6.00 to 7.00 | 6.00 to 7.00 | 6.00 to 7.00 | 6.00 to 7.00 | 6.00 to 7.00 | 6.00 to 7.00 | 6.00 to 7.00 | 6.00 to 7.00
CCn1c(-c2cccnc2[C@H](C)OC)c2c3cc(ccc31)-c1csc(n1)C[C@H](NC(=O)[C@H](C(C)C)N(C)C(=O)N1CCC[C@H]1CN(C)C)C(=O)N1CCC[C@H](N1)C(=O)OCC(C)(C)C2 [Example A519] | 5.00 to 6.00 | 5.00 to 6.00 | 6.00 to 7.00 | 5.00 to 6.00 | 5.00 to 6.00 | 5.00 to 6.00 | 5.00 to 6.00 | 5.00 to 6.00 | 6.00 to 7.00 | 6.00 to 7.00 | 6.00 to 7.00 | 5.00 to 6.00 | 5.00 to 6.00 | 6.00 to 7.00
CCn1c(-c2cccnc2[C@H](C)OC)c2c3cc(ccc31)-c1csc(n1)C[C@H](NC(=O)[C@H](C1CCCC1)N(C)C(=O)N1CCN(C)CC1)C(=O)N1CCC[C@H](N1)C(=O)OCC(C)(C)C2 [Example A525] | 7.00 to 8.00 | 7.00 to 8.00 | 6.00 to 7.00 | 5.00 to 6.00 | 6.00 to 7.00 | 6.00 to 7.00 | 6.00 to 7.00 | 6.00 to 7.00 | 6.00 to 7.00 | 6.00 to 7.00 | 6.00 to 7.00 | 6.00 to 7.00 | 6.00 to 7.00 | 6.00 to 7.00
CCn1c(-c2cccnc2[C@H](C)OC)c2c3cc(ccc31)-c1csc(n1)C[C@H](NC(=O)[C@H](C(C)C)N(C)C(=O)N1CC([C@H](C)NC)C1)C(=O)N1CCC[C@H](N1)C(=O)OCC(C)(C)C2 [Example A535] | 6.00 to 7.00 | 6.00 to 7.00 | 6.00 to 7.00 | 5.00 to 6.00 | 6.00 to 7.00 | 6.00 to 7.00 | 6.00 to 7.00 | 6.00 to 7.00 | 6.00 to 7.00 | 6.00 to 7.00 | 6.00 to 7.00 | 6.00 to 7.00 | 6.00 to 7.00 | 6.00 to 7.00
CCn1c(-c2cccnc2[C@H](C)OC)c2c3cc(ccc31)-c1csc(n1)C[C@H](NC(=O)[C@H](C(C)C)N(C)C(=O)N1CC3CCN(C)CC31)C(=O)N1CCC[C@H](N1)C(=O)OCC(C)(C)C2 (stereo partly drawn) [Example A539] | 6.00 to 7.00 | 6.00 to 7.00 | 5.00 to 6.00 | 5.00 to 6.00 | 5.00 to 6.00 | 5.00 to 6.00 | 5.00 to 6.00 | 5.00 to 6.00 | 5.00 to 6.00 | 6.00 to 7.00 | 5.00 to 6.00 | 5.00 to 6.00 | 5.00 to 6.00 | 5.00 to 6.00
CCn1c(-c2cccnc2[C@H](C)OC)c2c3cc(ccc31)-c1csc(n1)C[C@H](NC(=O)[C@H](C(C)C)N(C)C(=O)N1C3CC1CN(C)C3)C(=O)N1CCC[C@H](N1)C(=O)OCC(C)(C)C2 [Example A541] | 6.00 to 7.00 | 7.00 to 8.00 | 6.00 to 7.00 | 5.00 to 6.00 | 6.00 to 7.00 | 6.00 to 7.00 | 6.00 to 7.00 | 5.00 to 6.00 | 6.00 to 7.00 | 6.00 to 7.00 | 6.00 to 7.00 | 6.00 to 7.00 | 6.00 to 7.00 | 6.00 to 7.00

— patent US20230233569A1 (Revolution Medicines, Inc., priority 2020, published 2023)
